In US9624182B2, “Compounds as lysophosphatidic acid receptor antagonists” (Amira Pharmaceuticals, Inc., priority 2009, dated 2017):

These compounds were tested against T1, human LPA1 (Homo sapiens, UniProt Q92633) (assay: LPA1 calcium flux assay). Conditions: CHO cells expressing human LPA1, stimulated with 10 nM LPA; read-out: HLPA1 Ca Flux IC50.
T1 construct: the full-length cDNA for human LPA1 was obtained by PCR of the reverse transcription reaction; expressed in transfected cells
Format: cell-based
Outline: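 Antagonism measured as block of 10 nM LPA-evoked calcium rise in stable human LPA1-CHO cells. After overnight serum-free culture and 1 h dye loading at 37 °C (buffer with 0.3% fatty-acid-free albumin), compound was added for 30 min at room temperature. Titration curves gave IC50.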

T1 sequence (Q92633 whole entry): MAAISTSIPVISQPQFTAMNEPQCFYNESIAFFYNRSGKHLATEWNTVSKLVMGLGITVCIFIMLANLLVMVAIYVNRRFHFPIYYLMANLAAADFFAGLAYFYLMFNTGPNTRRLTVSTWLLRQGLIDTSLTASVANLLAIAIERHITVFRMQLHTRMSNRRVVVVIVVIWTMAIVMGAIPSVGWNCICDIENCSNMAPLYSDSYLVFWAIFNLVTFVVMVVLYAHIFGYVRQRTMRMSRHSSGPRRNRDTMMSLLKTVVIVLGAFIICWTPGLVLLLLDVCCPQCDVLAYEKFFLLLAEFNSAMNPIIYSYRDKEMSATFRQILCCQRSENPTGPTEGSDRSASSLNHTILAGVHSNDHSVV

IC50, > 50 µM:
Cc1noc(-c2ccc(-c3ccc(C4(C(=O)O)CC4)cc3)cc2)c1Nc1ccccn1 [Compound 1-296, 1-{4′-[3-Methyl-4-(pyridin-2-ylamino)-isoxazol-5-yl]-biphenyl-4-yl}-cyclopropanecarboxylic acid]

IC50, 1 to 50 µM:
Cc1noc(-c2ccc(-c3ccc(C4(C(=O)O)CC4)cc3)cc2)c1Nc1cccnc1 [Compound 1-290, 1-{4′-[3-Methyl-4-(pyridin-3-ylamino)-isoxazol-5-yl]-biphenyl-4-yl}-cyclopropanecarboxylic acid]
Cc1noc(-c2ccc(-c3ccc(C4(C(=O)O)CC4)cc3)cc2)c1Nc1cccc(C(=O)O)n1 [Compound 1-298, 6-{5-[4′-(1-Carboxy-cyclopropyl)-biphenyl-4-yl]-3-methyl-isoxazol-4-ylamino}-pyridine-2-carboxylic acid]
Cc1noc(-c2ccc(-c3ccc(C4(C(=O)O)CC4)cc3)cc2)c1Nc1cccc(C(=O)NCCN(C)C)n1 [Compound 1-299, 1-(4′-{4-[6-(2-Dimethylamino-ethylcarbamoyl)-pyridin-2-ylamino]-3-methyl-isoxazol-5-yl}-biphenyl-4-yl)-cyclopropanecarboxylic acid]
Cc1noc(-c2ccc(-c3ccc(C4(C(=O)O)CC4)cc3)cc2)c1Nc1cccc(O)n1 [Compound 1-302, 1-{4′-[4-(6-Hydroxy-pyridin-2-ylamino)-3-methyl-isoxazol-5-yl]-biphenyl-4-yl}-cyclopropanecarboxylic acid]
CCCCCCCCCCCCOc1cccc(Nc2c(C)noc2-c2ccc(-c3ccc(C4(C(=O)O)CC4)cc3)cc2)n1 [Compound 1-303, 1-{4′-[4-(6-Dodecyloxy-pyridin-2-ylamino)-3-methyl-isoxazol-5-yl]-biphenyl-4-yl}-cyclopropanecarboxylic acid]
Cc1noc(-c2ccc(-c3cccc(C(=O)O)c3)cc2)c1CNC(=O)OCc1ccccc1 [Compound 1-305, 4′-[4-(Benzyloxycarbonylamino-methyl)-3-methyl-isoxazol-5-yl]-biphenyl-3-carboxylic acid]
Cc1noc(-c2ccc(-c3ccc(C4(C(=O)O)CC4)cc3)cc2)c1Nc1cccc(OC(C)C)[n+]1[O-] [Compound 1-309, 1-{4′-[4-(6-Isopropoxy-1-oxy-pyridin-2-ylamino)-3-methyl-isoxazol-5-yl]-biphenyl-4-yl}-cyclopropanecarboxylic acid]

IC50, < 0.3 µM:
Cc1noc(-c2ccc(-c3ccc(C4(C(=O)O)CC4)cc3)cc2)c1C(O)CSC(C)(C)C (centres unmarked) [Compound 1-275, 1-{4′-[4-(2-tert-Butylsulfanyl-1-hydroxy-ethyl)-3-methyl-isoxazol-5-yl]-biphenyl-4-yl}-cyclopropanecarboxylic acid]
Cc1noc(-c2ccc(-c3ccc(C4(C(=O)O)CC4)cc3)cc2)c1C(O)CSCC(F)(F)F (centres unmarked) [Compound 1-276, 1-(4′-{4-[1-Hydroxy-2-(2,2,2-trifluoro-ethylsulfanyl)-ethyl]-3-methyl-isoxazol-5-yl}-biphenyl-4-yl)-cyclopropanecarboxylic acid]
Cc1noc(-c2ccc(-c3ccc(C4(C(=O)O)CC4)cc3)cc2)c1C(O)CSc1ccccc1 (centres unmarked) [Compound 1-277, 1-{4′-[4-(1-Hydroxy-2-phenylsulfanyl-ethyl)-3-methyl-isoxazol-5-yl]-biphenyl-4-yl}-cyclopropanecarboxylic acid]
Cc1noc(-c2ccc(-c3ccc(C4(C(=O)O)CC4)cc3)cc2)c1NC(C)CSc1ccccc1 (centres unmarked) [Compound 1-278, 1-{4′-[3-Methyl-4-(1-methyl-2-phenylsulfanyl-ethylamino)-isoxazol-5-yl]-biphenyl-4-yl}-cyclopropanecarboxylic acid]
Cc1noc(-c2ccc(-c3ccc(C4(C(=O)O)CC4)cc3)cc2)c1NC(C)COc1ccccc1 (centres unmarked) [Compound 1-279, 1-{4′-[3-Methyl-4-(1-methyl-2-phenoxy-ethylamino)-isoxazol-5-yl]-biphenyl-4-yl}-cyclopropanecarboxylic acid]
Cc1noc(-c2ccc(-c3ccc(C4(C(=O)O)CC4)cc3)cc2)c1Nc1ccc2ccccc2n1 [Compound 1-280, 1-{4′-[3-Methyl-4-(quinolin-2-ylamino)-isoxazol-5-yl]-biphenyl-4-yl}-cyclopropanecarboxylic acid]
Cc1noc(-c2ccc(-c3ccc(C4(C(=O)O)CC4)cc3)cc2)c1NC(C)c1cc2ccccc2s1 (centres unmarked) [Compound 1-284, 1-{4′-[4-(1-Benzo[b]thiophen-2-yl-ethylamino)-3-methyl-isoxazol-5-yl]-biphenyl-4-yl}-cyclopropanecarboxylic acid]
Cc1noc(-c2ccc(-c3ccc(C4(CC(=O)O)CC4)cc3)cc2)c1NC(C)c1cc2ccccc2s1 (centres unmarked) [Compound 1-286, (1-{4′-[4-(1-Benzo[b]thiophen-2-yl-ethylamino)-3-methyl-isoxazol-5-yl]-biphenyl-4-yl}-cyclopropyl)-acetic acid]
Cc1noc(-c2ccc(-c3ccc(C4(CC(=O)O)CC4)cc3)cc2)c1NC(C)CC(C)(C)c1ccccc1 (centres unmarked) [Compound 1-287, (1-{4′-[4-(1,3-Dimethyl-3-phenyl-butylamino)-3-methyl-isoxazol-5-yl]-biphenyl-4-yl}-cyclopropyl)-acetic acid]
Cc1noc(-c2ccc(-c3ccc(C4(C(=O)O)CC4)cc3)cc2)c1NC(C)/C=C/c1ccccc1 (centres unmarked) [Compound 1-288, 1-{4′-[3-Methyl-4-((E)-1-methyl-3-phenyl-allylamino)-isoxazol-5-yl]-biphenyl-4-yl}-cyclopropanecarboxylic acid]
COc1cncc(Nc2c(C)noc2-c2ccc(-c3ccc(C4(C(=O)O)CC4)cc3)cc2)c1 [Compound 1-291, 1-{4′-[4-(5-Methoxy-pyridin-3-ylamino)-3-methyl-isoxazol-5-yl]-biphenyl-4-yl}-cyclopropanecarboxylic acid]
CCCOc1cccc(Nc2c(C)noc2-c2ccc(-c3ccc(C4(C(=O)O)CC4)cc3)cc2)n1 [Compound 1-293, 1-{4′-[3-Methyl-4-(6-propoxy-pyridin-2-ylamino)-isoxazol-5-yl]-biphenyl-4-yl}-cyclopropanecarboxylic acid]
CCOc1cccc(Nc2c(C)noc2-c2ccc(-c3ccc(C4(C(=O)O)CC4)cc3)cc2)n1 [Compound 1-294, 1-{4′-[4-(6-Ethoxy-pyridin-2-ylamino)-3-methyl-isoxazol-5-yl]-biphenyl-4-yl}-cyclopropanecarboxylic acid]
CCCCOc1cccc(Nc2c(C)noc2-c2ccc(-c3ccc(C4(C(=O)O)CC4)cc3)cc2)n1 [Compound 1-295, 1-{4′-[4-(6-Butoxy-pyridin-2-ylamino)-3-methyl-isoxazol-5-yl]-biphenyl-4-yl}-cyclopropanecarboxylic acid]
Cc1noc(-c2ccc(-c3ccc(C4(C(=O)O)CC4)cc3)cc2)c1Nc1cccc(OC(C)C)n1 [Compound 1-297, 1-{4′-[4-(6-Isopropoxy-pyridin-2-ylamino)-3-methyl-isoxazol-5-yl]-biphenyl-4-yl}-cyclopropanecarboxylic acid]
Cc1noc(-c2ccc(-c3ccc(C4(C(=O)O)CC4)cc3)cc2)c1Nc1cccc(C(=O)NCC(C)(C)C)n1 [Compound 1-300, 1-(4′-{4-[6-(2,2-Dimethyl-propylcarbamoyl)-pyridin-2-ylamino]-3-methyl-isoxazol-5-yl}-biphenyl-4-yl)-cyclopropanecarboxylic acid]
Cc1noc(-c2ccc(-c3ccc(C4(C(=O)O)CC4)cc3)cc2)c1Nc1cccc(OC(C)(C)C)n1 [Compound 1-301, 1-{4′-[4-(6-tert-Butoxy-pyridin-2-ylamino)-3-methyl-isoxazol-5-yl]-biphenyl-4-yl}-cyclopropanecarboxylic acid]
COc1cccc(Nc2c(C)noc2-c2ccc(-c3ccc(C4(C(=O)O)CC4)cc3)cc2)n1 [Compound 1-304, 1-{4′-[4-(6-Methoxy-pyridin-2-ylamino)-3-methyl-isoxazol-5-yl]-biphenyl-4-yl}-cyclopropanecarboxylic acid]
Cc1onc(-c2ccc(-c3ccc(C4(CC(=O)O)CC4)cc3)cc2)c1CSCCc1ccccc1 [Compound 1-306, {1-[4′-(5-Methyl-4-phenethylsulfanylmethyl-isoxazol-3-yl)-biphenyl-4-yl]-cyclopropyl}-acetic acid]
Cc1noc(-c2ccc(-c3ccc(C4(C(=O)O)CC4)cc3)cc2)c1NC(=O)Nc1cccc(Br)c1 [Compound 1-308, 1-(4′-{4-[3-(3-Bromo-phenyl)-ureido]-3-methyl-isoxazol-5-yl}-biphenyl-4-yl)-cyclopropanecarboxylic acid]
Cc1noc(-c2ccc(-c3ccc(C4(C(=O)O)CC4)cc3)cc2)c1Nc1cncc(OC(C)C)c1 [Compound 1-310, 1-{4′-[4-(5-Isopropoxy-pyridin-3-ylamino)-3-methyl-isoxazol-5-yl]-biphenyl-4-yl}-cyclopropanecarboxylic acid]
CC(=O)c1cccc(Nc2c(C)noc2-c2ccc(-c3ccc(C4(C(=O)O)CC4)cc3)cc2)n1 [Compound 1-311, 1-{4′-[4-(6-Acetyl-pyridin-2-ylamino)-3-methyl-isoxazol-5-yl]-biphenyl-4-yl}-cyclopropanecarboxylic acid]

IC50, 0.3 to 1 µM:
Cc1noc(-c2ccc(-c3ccc(C4(C(=O)O)CC4)cc3)cc2)c1NC(=O)c1cccc(Br)c1 [Compound 1-292, 1-{4′-[4-(3-Bromo-benzoylamino)-3-methyl-isoxazol-5-yl]-biphenyl-4-yl}-cyclopropanecarboxylic acid]
Cc1noc(-c2ccc(-c3ccc(C#CC(=O)O)cc3)cc2)c1N[C@@H](C)CCc1cccc(C(F)(F)F)c1 [Compound 1-307, (4′-{3-Methyl-4-[(S)-1-methyl-3-(3-trifluoromethyl-phenyl)-propylamino]-isoxazol-5-yl}-biphenyl-4-yl)-propynoic acid]
